According to ChEMBL document CHEMBL6103597, “Opto-Epigenetic Regulation of Histone Arginine Asymmetric Dimethylation via Type I Protein Arginine Methyltransferase Inhibition” (J Med Chem, 2025):
Active and inactive are the calls of the source. The calls are words filed in the database; no cut-off is given here.

Tests used:
[1] = target: Protein arginine N-methyltransferase 6 (Homo sapiens) (UniProt Q96LA8); assay: Inhibition of PRMT6 in human A549 cells assessed as decrease in H3R2me2a level at 0.1 uM incubated for 24 hrs by Western blot analysis; assay type: cell-based
Protein arginine N-methyltransferase 6 (Homo sapiens), sequence (Q96LA8 whole entry, looked up): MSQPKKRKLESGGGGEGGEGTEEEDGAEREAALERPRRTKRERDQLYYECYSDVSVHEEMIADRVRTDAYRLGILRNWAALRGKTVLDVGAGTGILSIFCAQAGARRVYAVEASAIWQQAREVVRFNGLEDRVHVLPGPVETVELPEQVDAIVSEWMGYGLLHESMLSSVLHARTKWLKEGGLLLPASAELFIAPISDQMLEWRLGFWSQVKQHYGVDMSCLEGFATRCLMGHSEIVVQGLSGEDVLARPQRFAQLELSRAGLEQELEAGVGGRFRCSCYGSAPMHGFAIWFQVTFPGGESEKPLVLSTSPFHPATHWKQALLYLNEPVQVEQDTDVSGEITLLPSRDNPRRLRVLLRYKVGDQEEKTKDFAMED

[2] = target: Protein arginine N-methyltransferase 6 (Homo sapiens) (UniProt Q96LA8); assay: Inhibition of PRMT6 in human A549 cells assessed as decrease in H4R3me2a level at 0.1 uM incubated for 24 hrs by Western blot analysis; assay type: cell-based
[3] = Photochemical property of compound assessed as maximum fluorescence emission wavelength at 10 uM upon visible light irradiation at 420 nm by UV-Vis absorption spectroscopy; assay type: physicochemical
A549 [4] = assay: Effect on transcriptomic profile in human A549 cells at 0.1 uM incubated for 24 hrs by RNA-sequencing analysis; assay type: functional, cell-based
[5] = Photochemical property of compound assessed as hypsochromic shift by measuring maximum absorption peak wavelength at 10 uM upon visible light irradiation at 420 nm by UV-Vis absorption spectroscopy; assay type: physicochemical
A549 [6] = assay: Effect on DNA replication-related pathway in human A549 cells at 0.1 uM incubated for 24 hrs followed by light irradiation at 420 nm for 4 mins by GSEA analysis; assay type: functional, cell-based; conditions: time 1444.0 min
A549 [7] = assay: Effect on DNA replication-related pathway in human A549 cells at 0.1 uM incubated for 24 hrs by GSEA analysis; assay type: functional, cell-based
A549 [8] = assay: Antiproliferative activity against human A549 cells assessed as cell viability at 10 uM incubated for 72 hrs by MTT assay relative to control; assay type: functional; conditions: read-out: Activity
A549 [9] = assay: Effect on transcriptomic profile in human A549 cells assessed as differentially expressed genes at 0.1 uM incubated for 24 hrs followed by light irradiation at 420 nm for 4 mins by RNA-sequencing analysis relative to control; assay type: functional; conditions: time 1444 min, 24.07 h
A549 [10] = assay: Effect on cell cycle-related pathway in human A549 cells at 0.1 uM incubated for 24 hrs followed by light irradiation at 420 nm for 4 mins by GSEA analysis; assay type: functional, cell-based; conditions: time 1444.0 min
A549 [11] = assay: Antiproliferative activity against human A549 cells assessed as cell viability at 10 uM incubated for 24 hrs followed by light irradiation at 420 nm for 4 mins and measured after 48 hrs by MTT assay relative to control; assay type: functional; conditions: A549, light or radiation study, 72.07 h, time 4324 min, read-out: Activity
[12] = Stability in PBS buffer at pH 7.4 at 37 degreeC assessed as compound remaining under dark condition measured for 72 hrs by HPLC analysis; assay type: physicochemical; conditions: read-out: Stability
HUVEC = assay: Cytotoxicity against HUVEC cells at 50 uM incubated for 72 hrs under dark condition; assay type: toxicity, cell-based; conditions: human
A549 [13] = assay: Effect on transcriptomic profile in human A549 cells at 0.1 uM incubated for 24 hrs followed by light irradiation at 420 nm for 4 mins by RNA-sequencing analysis; assay type: functional, cell-based; conditions: time 1444.0 min
A549 [14] = assay: Effect on cell cycle-related pathway in human A549 cells at 0.1 uM incubated for 24 hrs by GSEA analysis; assay type: functional, cell-based
[15] = Prodrug photolysis assessed as drug degradation at 10 uM upon light irradiation at 420 nm for upto 4 mins by HPLC analysis; assay type: ADME

inhibition [1] | inhibition [2] | Activity [3] | Activity [5] | remaining at 72 h [12] | Stability [15] | SMILES | Activity (A549 [4]) | Activity (A549 [6]) | Activity (A549 [7]) | viability at 10 µM (A549 [8]) | Activity (A549 [9]) | Activity (A549 [10]) | viability at 10 µM (A549 [11]) | Activity (HUVEC) | Activity (A549 [13]) | Activity (A549 [14])
Active | Active | – | – | – | – | CC(C)Oc1ccc(-c2c[nH]cc2CN(C)CCN)cc1 | – | – | – | – | – | – | – | – | – | –
– | – | 470 nm | 380 nm | > 75% | Unstable | CCN(CC)c1ccc2c(COC(=O)NCCN(C)Cc3c[nH]cc3-c3ccc(OC(C)C)cc3)cc(=O)oc2c1 | No effect | Active; Downregulation Of Gene Sets Observed | No effect | 94.6% | ~56% | Active; Downregulation Of Gene Sets Observed | 79.4% | Non-toxic | Active; About 5.4:1 Ratio Between Down-Regulated And Upregulated Genes Observed | No effect
